# Measurements reported in EP0326331B1, “Substituted quinolines and cinnolines” (Dow AgroSciences LLC, priority 1988, dated 1989).
# How the values were obtained:
# [1] = test system: melon aphids (Aphis gossypii Glover); assay: Mite/insect screen, MA; format: in vivo; settings: Aphis gossypii, foliar, percent mortality, foliar spray on squash, read-out: MA RESULTS %; for mortality at 200 ppm: rate 200 ppm; for mortality at 400 ppm: rate 400 ppm
# How it was run: (§1)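 Formulation: acetone/alcohol 50:50 + sulfonate/nonionic emulsifiers, water-diluted to indicated concs. Spray both leaf surfaces to runoff, 10 psi; dry 1 h. Armyworm: 2 excised uninfested leaves in Petri dish. Score % mortality after standard exposure.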
# corn rootworm = assay: Mite/insect screen, CRW; format: in vivo; settings: percent mortality, read-out: CRW RESULTS %; for mortality at 12 ppm: CRW rate 12.00 ppm; for mortality at 24 ppm: CRW rate 24.00 ppm
# How it was run: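 Percent mortality is evaluated once the standard exposure period ends. Test material is applied as a water dilution of an acetone/alcohol (50:50) stock carrying two sulfonate/nonionic emulsifiers (23 and 13 g per liter).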
# [2] = test system: southern armyworm (Spodopetra eridania Cramer); assay: Mite/insect screen, SAW; format: in vivo; settings: Spodoptera eridania, foliar, percent mortality, foliar spray on squash, read-out: SAW RESULTS %; for mortality at 200 ppm: rate 200 ppm; for mortality at 400 ppm: rate 400 ppm
# How it was run: as §1
# [3] = test system: Botrytis cinerea (gray mold); assay: Test 1 greenhouse foliar spray screen, gray mold on grape berries; format: in vivo; settings: Botrytis cinerea, foliar; Test 1, spray on grape berries; disease control rating at 400 ppm / 100 ppm
# [4] = test system: Septoria tritici (leaf blotch); assay: Test 1 greenhouse foliar spray screen, leaf blotch on wheat; format: in vivo; settings: Zymoseptoria tritici; Test 1, foliar spray on wheat; disease control rating at 400 ppm / 100 ppm; read-out: LEAF BLOT
# [5] = test system: Cercospora beticola (leaf spot); assay: Test 1 greenhouse foliar spray screen, leaf spot on sugar beet; format: in vivo; settings: Cercospora beticola; Test 1, foliar spray on sugar beet; disease control rating at 400 ppm / 100 ppm
# [6] = test system: Pseudoperonospora cubensis (downy mildew); assay: Test 1 greenhouse foliar spray screen, downy mildew on squash; format: in vivo; settings: for pest or weed control at 400 ppm: Pseudoperonospora cubensis, foliar, Test 1, foliar spray on squash, disease control rating at 400 ppm / 100 ppm, read-out: DOWN MDEW
# plant pathogens = assay: Fungicidal efficacy against a broad spectrum of plant pathogens (summary of screen); format: in vivo; settings: summary statement in the description
# [7] = test system: Puccinia recondita tritici (leaf rust); assay: Test 1 greenhouse foliar spray screen, leaf rust on wheat; format: in vivo; settings: Puccinia recondita, foliar, Test 1, foliar spray on wheat; disease control rating at 400 ppm / 100 ppm
# [8] = test system: Pyricularia oryzae (rice blast); assay: whole plant or invertebrate; format: in vivo; settings: for pest or weed control at 400 ppm: Pyricularia oryzae, foliar, read-out: RICE BLAST, Test 1, foliar spray on rice, disease control rating at 400 ppm / 100 ppm
# [9] = test system: Venturia inaequalis (apple scab); assay: Test 1 greenhouse foliar spray screen, apple scab on apple seedling; format: in vivo; settings: Venturia inaequalis; Test 1, foliar spray on apple seedling; disease control rating at 400 ppm / 100 ppm; read-out: APPL SCAB
# [10] = test system: Twospotted spider mites (Tetranychus urticae Koch); assay: Mite/insect screen, SM; format: in vivo; settings: Tetranychus urticae, foliar, percent mortality, foliar spray on squash, read-out: SM RESULTS %; for mortality at 200 ppm: rate 200 ppm; for mortality at 400 ppm: rate 400 ppm
# How it was run: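 Compounds dissolved in 50:50 acetone/alcohol containing sulfonate/nonionic emulsifier blends, then diluted with water to the indicated concentrations. Leaves sprayed on both surfaces to runoff at 10 psi and dried one hour. Percent mortality scored after standard exposure periods.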
# [11] = test system: Erysiphe graminis tritici (powdery mildew); assay: Test 1 greenhouse foliar spray screen, powdery mildew on wheat; format: in vivo; settings: Blumeria graminis, foliar, Test 1, foliar spray on wheat; disease control rating at 400 ppm / 100 ppm; read-out: POWD MDEW
# CUCURBIT POWDERY MILDEW = assay: Greenhouse combination test with known fungicide, foliar spray; settings: 1-9 rating scale, time 4 hours
# Procedure: (§2) The test compounds were formulated for application by dissolving 50 mg of the compound into 1.25 ml of solvent. The solvent was prepared by mixing 50 ml of "Tween 20" with 475 ml of acetone and 475 ml of ethanol. The solvent/compound solution was diluted to 125 ml with deionized water. The resulting formulation contains 400 ppm test chemical. Lower concentrations were obtained by serial dilution with the solvent-surfactant mixture.
# (§3) The formulated technical compounds were sprayed on all foliar surfaces of the host plants (or cut berry) to past run-off. Single pots of each host plant were placed on raised, revolving pedestals in a fume hood. Test solutions were sprayed on all foliar surfaces. All treatments were allowed to dry and the plants were inoculated with the appropriate pathogens within 2-4 hours.
# (§4) In the tables, the time given under "Time in hours" is the number of hours elapsing between treatment and inoculation. […] In such cases, curative activity was being tested. […] In such cases, residual or protectant activity was tested. […] The results were evaluated on a 1-9 rating scale. These ratings represent the following percent disease control: 1 = 0-19%, 2 = 20-29%, 3 = 30-39%, 4 = 40-59%, 5 = 60-74%, 6 = 75-89%, 7 = 90-96%, 8 = 97-99%, and 9 = 100%.
# CUCURBIT DOWNY MILDEW = assay: as above; settings: 1-9 rating scale, time 4 hours
# Procedure: as §2, §3, §4
# [12] = summary statement in the description
Structure (SMILES),mortality at 200 ppm [1] [%],mortality at 12 ppm (corn rootworm) [%],mortality at 200 ppm [2] [%],pest or weed control at 400 ppm [3] [%],pest or weed control at 400 ppm [4] [%],pest or weed control at 400 ppm [5] [%],pest or weed control at 400 ppm [6] [%],activity against a broad spectrum of plant pathogens (plant pathogens),pest or weed control at 400 ppm [7] [%],pest or weed control at 400 ppm [8] [%],pest or weed control at 400 ppm [9] [%],mortality at 200 ppm [10] [%],pest or weed control at 400 ppm [11] [%],mortality at 400 ppm [1] [%],mortality at 24 ppm (corn rootworm) [%],mortality at 400 ppm [2] [%],mortality at 400 ppm [10] [%],other results
"Cc1ccc(CCOc2ccnc3ccccc23)cc1 [Example 210, 4-[2-(4-methylphenyl)ethoxy]quinoline]",0,0,0,0 to 19,90 to 100,20 to 89,90 to 100,particularly excellent activity,90 to 100,90 to 100,0 to 19,0,90 to 100,,,,,"activity against downy mildew [6, 12]: particularly excellent activity"
"COc1ccccc1CCOc1ccnc2c(F)cccc12 [Example 228, 8-fluoro-4-[2-(2-methoxyphenyl)ethoxy]quinoline]",0,0,0,0 to 19,90 to 100,20 to 89,90 to 100,particularly excellent activity,90 to 100,90 to 100,90 to 100,0,90 to 100,80,0,0,0,
"CC(C)(C)c1ccc(CCCc2ccnc3c(F)cccc23)cc1 [Example 260, 4-[3-[4-(t-butyl)phenyl]propyl]-8-fluoroquinoline]",100,0,100,0 to 19,90 to 100,20 to 89,90 to 100,particularly excellent activity,90 to 100,90 to 100,0 to 19,100,90 to 100,0,40,40,0,"activity against rice blast [8, 12]: particularly excellent activity"
"OC(c1ccc(F)cc1)(c1cncnc1)c1ccccc1Cl (stereo not drawn) [nuarimol, reference compound]",,,,,,,,,,,,,,,,,,RESULTS (CUCURBIT POWDERY MILDEW; nuarimol alone 0.25 ppm): 6.0; RESULTS (CUCURBIT POWDERY MILDEW; nuarimol alone 0.50 ppm): 7.0; RESULTS (CUCURBIT POWDERY MILDEW; nuarimol alone 1.00 ppm): 8.0; RESULTS (CUCURBIT POWDERY MILDEW; nuarimol alone 2.00 ppm): 9.0; RESULTS (CUCURBIT DOWNY MILDEW; nuarimol alone 0.25 ppm): 1.0; RESULTS (CUCURBIT DOWNY MILDEW; nuarimol alone 0.50 ppm): 1.0; RESULTS (CUCURBIT DOWNY MILDEW; nuarimol alone 1.00 ppm): 1.0; RESULTS (CUCURBIT DOWNY MILDEW; nuarimol alone 2.00 ppm): 1.0
